Results on 2 compounds are retold here after patent US9790218B2, “Small molecule activators of calcium-activated chloride channels and methods of use” (The Regents of the University of California, priority 2011, dated 2017).

Type in all cases: cell-based
Assay [1] deals with T1, CFTR (Homo sapiens, UniProt P13569).
T1 construct: expressed in transfected cells; host or cells: FRT cells co-expressing a YFP halide indicator
Nature of the assay: CFTR conductance in FRT cells expressing wild type CFTR and YFP indicator. The settings on record: 10 μM, 5 min pretreatment; forskolin 10 μM. The procedure: (§1) FIG. 2A-E. Characterization of TMEM16A activators. FIG. 2A. Cytoplasmic calcium measured by Fluo-4 fluorescence. 100 μM ATP (gray line) or 10 μM of indicated TMEM16A activators were added at the arrow. FIG. 2B. Apical membrane current measured in TMEM16A-expressing FRT cells in the presence of a transepithelial chloride gradient and after basolateral membrane permeabilization. […] T16Ainh-A01 (10 μM) added where indicated. […] (right) Concentration-activation data summary (mean±S.E., n=4-6). FIG. 2C. Synergistic effect of Eact and Fact. (left and center) Representative current traces showing synergy. (right) Data summary of low doses of TMEM16A activation (mean±S.E., n=5, * P<0.05). FIG. 2D. Apical membrane current measured in FRT cells transfected with mouse TMEM16A or TMEM16B. FIG. 2E. Effect of Eact and Fact on CFTR and ENaC. (left) FRT cells expressing wild type CFTR and YFP indicator were pretreated for 5 min with 10 μM Eact and Fact. Forskolin (10 μM) added as indicated. (right) HBE cells were pre-treated for 5 min with 10 μM Eact and Fact, with amiloride (10 μM) added as indicated.

Assay [2] concerns cytoplasmic Ca^2+ in FRT cells. The assay is described as follows: Cytoplasmic calcium measured by Fluo-4 fluorescence. The settings on record: 10 μM activator. The procedure: as §1
FRT cells in 96-well black-walled microplates were loaded with Fluo-4 NW per the manufacturer's protocol (Invitrogen, Carlsbad, Calif.). Fluo-4 fluorescence was measured with a FLUOstar Optima fluorescence plate reader equipped with syringe pumps and custom Fluo-4 excitation/emission filters (485/538 nm).

Assay [3] deals with T2, TMEM16A (Homo sapiens, UniProt Q5XXA6, DEL476-501).
T2 construct: expressed in transfected cells
T2 sequence (Q5XXA6 with tags, fused parts or gaps isoform Q5XXA6-5 DEL539-564): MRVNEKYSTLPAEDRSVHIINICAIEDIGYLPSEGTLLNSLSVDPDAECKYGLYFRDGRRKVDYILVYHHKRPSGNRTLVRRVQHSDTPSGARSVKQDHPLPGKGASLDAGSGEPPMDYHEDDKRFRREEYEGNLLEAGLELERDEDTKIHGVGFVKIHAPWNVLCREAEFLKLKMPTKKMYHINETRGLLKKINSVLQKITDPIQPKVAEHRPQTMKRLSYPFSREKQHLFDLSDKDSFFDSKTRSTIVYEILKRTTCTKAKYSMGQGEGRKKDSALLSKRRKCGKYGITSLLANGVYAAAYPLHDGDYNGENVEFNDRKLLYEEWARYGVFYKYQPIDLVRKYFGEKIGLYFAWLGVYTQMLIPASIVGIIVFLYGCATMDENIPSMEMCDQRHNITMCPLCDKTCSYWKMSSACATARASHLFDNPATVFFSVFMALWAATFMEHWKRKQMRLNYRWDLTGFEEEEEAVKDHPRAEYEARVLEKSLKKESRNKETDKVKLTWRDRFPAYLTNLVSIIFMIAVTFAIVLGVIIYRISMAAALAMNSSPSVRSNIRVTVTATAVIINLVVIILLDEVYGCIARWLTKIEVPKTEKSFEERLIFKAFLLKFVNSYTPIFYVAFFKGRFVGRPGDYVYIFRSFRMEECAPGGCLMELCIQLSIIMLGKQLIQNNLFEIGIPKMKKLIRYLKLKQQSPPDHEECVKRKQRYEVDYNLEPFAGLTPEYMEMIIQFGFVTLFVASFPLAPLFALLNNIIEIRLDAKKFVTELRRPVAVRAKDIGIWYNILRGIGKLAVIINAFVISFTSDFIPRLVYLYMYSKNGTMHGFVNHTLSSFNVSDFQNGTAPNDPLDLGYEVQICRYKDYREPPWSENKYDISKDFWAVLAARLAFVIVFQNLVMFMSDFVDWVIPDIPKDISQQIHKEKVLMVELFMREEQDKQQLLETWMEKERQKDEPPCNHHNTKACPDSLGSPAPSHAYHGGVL
The assay is described as follows: Whole-cell patch-clamp of TMEM16A-expressing FRT cells. The procedure:
FIG. 4A-D. Patch-clamp analysis of Ca^2+ requirements for TMEM16A activation by Eact and Fact. FIG. 4A. Apical membrane current measured in TMEM16A-expressing FRT cells. ER calcium stores were depleted by CPA (50 μM, 30 min) and 0 CaCl2 in bath. ATP (100 μM), Fact (10 μM), Eact (10 μM) and T16Ainh-A01 (10 μM) were added as indicated. FIG. 4B and FIG. 4C. Whole-cell TMEM16A currents were recorded at a holding potential at 0 mV, and pulsing to voltages between ±80 mV (in steps of 20 mV) in the absence and presence of 3 μM Eact or 10 μM Fact. Free calcium concentration of pipette solutions were clamped at 0 μM, 0.07 μM, 0.15 μM, and 1 μM. Eact (3 μM) or Fact (10 μM) added as indicated. (right) Current/voltage (I/V) plots of mean currents at the middle of each voltage pulse. The Ca^2+ concentration is indicated to the right. FIG. 4D. TMEM16A inhibited by 10 μM T16Ainh-A01 after stimulation by Eact or Fact.
Whole-cell recordings were made at room temperature on TMEM16A-expressing FRT cells and human submandibular A253 cells. The bath solution contained (in mM): 140 NMDG-Cl, 1 CaCl2, 1 MgCl2, 10 glucose and 10 HEPES (pH 7.4). The pipette solution contained (in mM): 130 CsCl, 0.5 EGTA, 1 MgCl2, 1 Tris-ATP, and 10 HEPES (pH 7.2). Different concentrations of free calcium in pipette solution were obtained by replacing 0.5 mM EGTA with 5 mM EGTA, and using different amounts of CaCl2 in the pipette solution. Pipettes were pulled from borosilicate glass and had resistances of 3-5 MΩ after fire polishing. Seal resistances were between 3 and 10 GΩ. After establishing the whole-cell configuration, TMEM16A was activated by 100 μM ATP, TMEM16A activators or different concentrations of free calcium in the pipette solution. Whole-cell currents were elicited by applying hyperpolarizing and depolarizing voltage pulses from a holding potential of 0 mV to potentials between −100 mV and +100 mV in steps of 20 mV. Recordings were made at room temperature using an Axopatch-200B (Axon Instruments). Currents were digitized with a Digidata 1440A converter (Axon Instruments), filtered at […].
The Ca^2+ dependence of TMEM16A activation by Eact and Fact was investigated. […] Whole-cell currents were then recorded by patch-clamp at different cytoplasmic (pipette) [Ca^2+]. […] (FIG. 4B, bottom and right). […] Thus, Eact and Fact activate TMEM16A by different mechanisms: Eact as a largely Ca^2+-independent ‘activator’, and Fact as a ‘potentiator’ of Ca^2+ activation.

T1 sequence (P13569 whole entry): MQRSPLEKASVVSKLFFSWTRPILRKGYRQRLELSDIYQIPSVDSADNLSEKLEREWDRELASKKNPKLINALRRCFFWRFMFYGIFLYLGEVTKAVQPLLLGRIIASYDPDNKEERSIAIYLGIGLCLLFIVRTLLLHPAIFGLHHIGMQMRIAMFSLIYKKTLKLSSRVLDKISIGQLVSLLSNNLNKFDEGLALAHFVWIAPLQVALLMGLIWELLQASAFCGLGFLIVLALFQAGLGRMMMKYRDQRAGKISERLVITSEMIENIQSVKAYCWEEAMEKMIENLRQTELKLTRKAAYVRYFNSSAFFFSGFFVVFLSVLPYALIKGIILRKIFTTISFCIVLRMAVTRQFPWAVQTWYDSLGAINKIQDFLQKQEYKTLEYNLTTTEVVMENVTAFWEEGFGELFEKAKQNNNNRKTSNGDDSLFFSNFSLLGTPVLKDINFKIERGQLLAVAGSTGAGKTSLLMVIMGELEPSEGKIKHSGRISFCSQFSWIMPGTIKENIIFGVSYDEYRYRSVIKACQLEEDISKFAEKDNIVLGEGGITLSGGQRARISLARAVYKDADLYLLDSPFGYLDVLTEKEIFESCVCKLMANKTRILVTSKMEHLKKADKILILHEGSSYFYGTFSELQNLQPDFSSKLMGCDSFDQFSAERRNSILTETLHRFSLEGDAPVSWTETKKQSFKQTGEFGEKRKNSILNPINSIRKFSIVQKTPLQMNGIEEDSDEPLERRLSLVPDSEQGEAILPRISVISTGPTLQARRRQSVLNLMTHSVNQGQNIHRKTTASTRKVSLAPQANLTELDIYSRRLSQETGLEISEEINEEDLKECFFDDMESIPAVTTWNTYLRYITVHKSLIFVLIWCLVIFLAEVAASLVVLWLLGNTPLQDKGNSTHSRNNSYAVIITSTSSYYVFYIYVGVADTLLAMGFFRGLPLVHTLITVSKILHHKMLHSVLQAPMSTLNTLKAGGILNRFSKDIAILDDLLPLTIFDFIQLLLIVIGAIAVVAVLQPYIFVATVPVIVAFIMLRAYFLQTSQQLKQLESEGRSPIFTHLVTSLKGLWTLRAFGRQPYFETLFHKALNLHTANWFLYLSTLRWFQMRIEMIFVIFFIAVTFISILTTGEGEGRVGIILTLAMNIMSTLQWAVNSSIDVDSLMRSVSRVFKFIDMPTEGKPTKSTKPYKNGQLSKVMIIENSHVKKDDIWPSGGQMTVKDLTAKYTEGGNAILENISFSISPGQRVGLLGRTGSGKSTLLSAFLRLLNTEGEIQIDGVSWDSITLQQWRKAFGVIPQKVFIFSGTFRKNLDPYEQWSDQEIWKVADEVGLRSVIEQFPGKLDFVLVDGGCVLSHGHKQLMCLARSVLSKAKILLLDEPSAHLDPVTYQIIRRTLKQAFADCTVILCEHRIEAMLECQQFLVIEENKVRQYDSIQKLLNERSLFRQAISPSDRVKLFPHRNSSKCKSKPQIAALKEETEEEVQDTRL

`O=C(Nc1ccc(Br)cc1)c1cccc(-n2cnnn2)c1` [Fact, N-(4-bromophenyl)-3-(1H-tetrazol-1-yl)benzamide]: the “effect on CFTR conductance” value in assay [1] is “Neither Eact nor Fact affected”. Besides, the “effect on cytoplasmic Ca^2+” value in assay [2] was “did not elevate Ca^2+”. In addition, the “maximum TMEM16A Cl^− current at high [Ca^2+]” value in assay [3] (3 μM Eact or 10 μM Fact) was “not further increased”. For the same compound, the “whole-cell Cl^− current at submaximal Ca^2+” value in assay [3] (compared to no compound, 10 μM Fact) is on record as “increased Cl^− current”. For the same compound, the “whole-cell TMEM16A Cl^− current at 0 Ca^2+” value in assay [3] (pipette 0 Ca^2+, 3 μM Eact or 10 μM Fact) is “did not product Cl^− current”.

For `CCc1c(C)nc(SCC(=O)Nc2nc(-c3ccc(OC)cc3)cs2)[nH]c1=O` [T16Ainh-A01, reference compound], in assay [3] (10 μM T16Ainh-A01), the “block of Cl^− currents produced by Eact or Fact” value was “completely blocked”.
